Source: PubChem BioAssay (NCI)
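Method: 48-hour compound exposure of cells in 96-well plates, five concentrations, linear interpolation of endpoints. The concentration for full growth arrest is given as TGI.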

Experiments:
Assay in all cases: NCI anticancer screen, dose series, 48 h
MDA-N = test system: MDA-N
ACHN renal = test system: ACHN renal
SR leukemia = test system: SR leukemia
HOP-62 NSCLC = test system: HOP-62 NSCLC
MALME-3M melanoma = test system: MALME-3M melanoma
HOP-92 NSCLC = test system: HOP-92 NSCLC
U251 CNS = test system: U251 CNS
MDA-MB-435 = test system: MDA-MB-435
RXF 393 renal = test system: RXF 393 renal
OVCAR-3 ovarian = test system: OVCAR-3 ovarian
SK-MEL-28 melanoma = test system: SK-MEL-28 melanoma
A549 NSCLC = test system: A549 NSCLC
UACC-257 melanoma = test system: UACC-257 melanoma
SF-295 CNS = test system: SF-295 CNS
SK-OV-3 ovarian = test system: SK-OV-3 ovarian
786-0 renal = test system: 786-0 renal
SN12C renal = test system: SN12C renal
HCC-2998 colon = test system: HCC-2998 colon

Compound: CCn1c(=O)c2c3ccc(OC)cc3[nH]c2c2ccc(OC)cc21
- TGI (MDA-N): > 100 µM
- TGI (ACHN renal): > 100 µM
- TGI (SR leukemia): > 100 µM
- TGI (HOP-62 NSCLC): > 100 µM
- TGI (MALME-3M melanoma): > 100 µM
- TGI (HOP-92 NSCLC): > 100 µM
- TGI (U251 CNS): > 100 µM
- TGI (MDA-MB-435): > 100 µM
- TGI (RXF 393 renal): > 100 µM
- TGI (OVCAR-3 ovarian): > 100 µM
- TGI (SK-MEL-28 melanoma): > 100 µM
- TGI (A549 NSCLC): > 100 µM
- TGI (UACC-257 melanoma): > 100 µM
- TGI (SF-295 CNS): > 100 µM
- TGI (SK-OV-3 ovarian): > 100 µM
- TGI (786-0 renal): > 100 µM
- TGI (SN12C renal): > 100 µM
- TGI (HCC-2998 colon): 62.7 µM

Compound: COc1ccc(Cn2c3ccc([N+](=O)[O-])cc3c(=O)n2Cc2ccccn2)cc1
- TGI (MDA-N): > 100 µM
- TGI (ACHN renal): > 100 µM
- TGI (SR leukemia): > 100 µM
- TGI (HOP-62 NSCLC): > 100 µM
- TGI (MALME-3M melanoma): > 100 µM
- TGI (HOP-92 NSCLC): > 100 µM
- TGI (U251 CNS): > 100 µM
- TGI (MDA-MB-435): > 100 µM
- TGI (RXF 393 renal): > 100 µM
- TGI (OVCAR-3 ovarian): > 100 µM
- TGI (SK-MEL-28 melanoma): > 100 µM
- TGI (A549 NSCLC): > 100 µM
- TGI (UACC-257 melanoma): > 100 µM
- TGI (SF-295 CNS): > 100 µM
- TGI (SK-OV-3 ovarian): > 100 µM
- TGI (786-0 renal): > 100 µM
- TGI (SN12C renal): > 100 µM
- TGI (HCC-2998 colon): > 100 µM

Compound: O=C1c2cccnc2-c2nccc3c2c1nc1ccc(Br)cc13
- TGI (MDA-N): 0.249 µM
- TGI (ACHN renal): 0.0957 µM
- TGI (SR leukemia): 0.0372 µM
- TGI (HOP-62 NSCLC): 0.194 µM
- TGI (MALME-3M melanoma): 0.338 µM
- TGI (HOP-92 NSCLC): 0.794 µM
- TGI (U251 CNS): 0.147 µM
- TGI (MDA-MB-435): 0.257 µM
- TGI (RXF 393 renal): 0.0691 µM
- TGI (OVCAR-3 ovarian): 0.0586 µM
- TGI (SK-MEL-28 melanoma): 0.169 µM
- TGI (A549 NSCLC): 0.387 µM
- TGI (UACC-257 melanoma): 0.169 µM
- TGI (SF-295 CNS): 0.114 µM
- TGI (SK-OV-3 ovarian): 0.389 µM
- TGI (786-0 renal): 0.0986 µM
- TGI (SN12C renal): 0.205 µM
- TGI (HCC-2998 colon): 0.308 µM

Compound: OC1(c2ccc(Cl)cc2)c2c(c3ccccc3c3ccccc23)C2=NCCN21 (stereo unspecified)
- TGI (MDA-N): 51.1 µM
- TGI (ACHN renal): 28.8 µM
- TGI (SR leukemia): 30.5 µM
- TGI (HOP-62 NSCLC): 24.2 µM
- TGI (MALME-3M melanoma): 40.1 µM
- TGI (HOP-92 NSCLC): 49.4 µM
- TGI (U251 CNS): 30.8 µM
- TGI (MDA-MB-435): > 100 µM
- TGI (RXF 393 renal): 24.7 µM
- TGI (OVCAR-3 ovarian): 62.1 µM
- TGI (SK-MEL-28 melanoma): 34.9 µM
- TGI (A549 NSCLC): 59 µM
- TGI (UACC-257 melanoma): 49.7 µM
- TGI (SF-295 CNS): 28.1 µM
- TGI (SK-OV-3 ovarian): 31.3 µM
- TGI (786-0 renal): 15.2 µM
- TGI (SN12C renal): 44.7 µM
- TGI (HCC-2998 colon): 6.85 µM

Compound: Nc1ccccc1OCCCOc1ccccc1N
- TGI (MDA-N): > 100 µM
- TGI (ACHN renal): > 100 µM
- TGI (SR leukemia): > 100 µM
- TGI (HOP-62 NSCLC): > 100 µM
- TGI (MALME-3M melanoma): > 100 µM
- TGI (HOP-92 NSCLC): > 100 µM
- TGI (U251 CNS): > 100 µM
- TGI (MDA-MB-435): > 100 µM
- TGI (RXF 393 renal): > 100 µM
- TGI (OVCAR-3 ovarian): > 100 µM
- TGI (SK-MEL-28 melanoma): > 100 µM
- TGI (A549 NSCLC): > 100 µM
- TGI (UACC-257 melanoma): > 100 µM
- TGI (SF-295 CNS): > 100 µM
- TGI (SK-OV-3 ovarian): > 100 µM
- TGI (786-0 renal): > 100 µM
- TGI (SN12C renal): > 100 µM
- TGI (HCC-2998 colon): > 100 µM

Compound: COc1ccc(N2N=NN(C(C)C)/C2=C(/Cl)c2nnnn2-c2ccc(OC)cc2)cc1
- TGI (MDA-N): 27.4 µM
- TGI (ACHN renal): 30.7 µM
- TGI (SR leukemia): > 31.8 µM
- TGI (HOP-62 NSCLC): 37.1 µM
- TGI (MALME-3M melanoma): 24.7 µM
- TGI (HOP-92 NSCLC): 6.19 µM
- TGI (U251 CNS): 33.7 µM
- TGI (MDA-MB-435): 25.5 µM
- TGI (RXF 393 renal): 27.4 µM
- TGI (OVCAR-3 ovarian): 24.5 µM
- TGI (SK-MEL-28 melanoma): 29.7 µM
- TGI (A549 NSCLC): 33.6 µM
- TGI (UACC-257 melanoma): 28.9 µM
- TGI (SF-295 CNS): 30.4 µM
- TGI (SK-OV-3 ovarian): 32.8 µM
- TGI (786-0 renal): 7.06 µM
- TGI (SN12C renal): 28.2 µM
- TGI (HCC-2998 colon): 34.4 µM

Compound: CCCCCCCCCCCCCCCC(=O)OCC1OC(OC)C(NC(=O)N(CCCl)N=O)C(O)C1O (stereo unspecified)
- TGI (MDA-N): 32 µM
- TGI (ACHN renal): 57.2 µM
- TGI (SR leukemia): > 60.9 µM
- TGI (HOP-62 NSCLC): 31.9 µM
- TGI (MALME-3M melanoma): 59 µM
- TGI (HOP-92 NSCLC): 47.8 µM
- TGI (U251 CNS): 27 µM
- TGI (MDA-MB-435): 31.3 µM
- TGI (RXF 393 renal): 32.7 µM
- TGI (OVCAR-3 ovarian): 48.6 µM
- TGI (SK-MEL-28 melanoma): > 85.4 µM
- TGI (A549 NSCLC): 35.2 µM
- TGI (UACC-257 melanoma): 47.8 µM
- TGI (SF-295 CNS): 24.7 µM
- TGI (SK-OV-3 ovarian): 63 µM
- TGI (786-0 renal): 14.9 µM
- TGI (SN12C renal): 39.3 µM
- TGI (HCC-2998 colon): 48.2 µM

Compound: COC1=CC(=O)c2nc3ccccc3c3ccnc1c23
- TGI (MDA-N): 0.448 µM
- TGI (ACHN renal): > 65.4 µM
- TGI (SR leukemia): 10.8 µM
- TGI (HOP-62 NSCLC): > 44.8 µM
- TGI (MALME-3M melanoma): 7 µM
- TGI (HOP-92 NSCLC): 48 µM
- TGI (U251 CNS): > 67.3 µM
- TGI (MDA-MB-435): 0.38 µM
- TGI (RXF 393 renal): 16.2 µM
- TGI (OVCAR-3 ovarian): > 21.4 µM
- TGI (SK-MEL-28 melanoma): 41.5 µM
- TGI (A549 NSCLC): 13.9 µM
- TGI (UACC-257 melanoma): 17 µM
- TGI (SF-295 CNS): 19.7 µM
- TGI (SK-OV-3 ovarian): > 100 µM
- TGI (786-0 renal): > 48.7 µM
- TGI (SN12C renal): > 45.1 µM
- TGI (HCC-2998 colon): 11.8 µM

Compound: COc1ccc(N2C(=O)C3c4[nH]c5ccccc5c4C4c5ccccc5CC4C3C2=O)cc1 (stereo unspecified)
- TGI (MDA-N): > 100 µM
- TGI (ACHN renal): > 100 µM
- TGI (SR leukemia): > 100 µM
- TGI (HOP-62 NSCLC): > 100 µM
- TGI (MALME-3M melanoma): > 100 µM
- TGI (HOP-92 NSCLC): > 100 µM
- TGI (U251 CNS): > 100 µM
- TGI (MDA-MB-435): > 100 µM
- TGI (RXF 393 renal): > 100 µM
- TGI (OVCAR-3 ovarian): > 100 µM
- TGI (SK-MEL-28 melanoma): > 100 µM
- TGI (A549 NSCLC): > 100 µM
- TGI (UACC-257 melanoma): > 100 µM
- TGI (SF-295 CNS): > 100 µM
- TGI (SK-OV-3 ovarian): > 100 µM
- TGI (786-0 renal): > 100 µM
- TGI (SN12C renal): > 100 µM
- TGI (HCC-2998 colon): > 100 µM

Compound: CC(=O)OCC1OC(n2c(N)c(C#N)c(-c3cccc(Cl)c3)c(C#N)c2=S)C(OC(C)=O)C(OC(C)=O)C1OC(C)=O (stereo unspecified)
- TGI (MDA-N): 54.7 µM
- TGI (ACHN renal): > 100 µM
- TGI (SR leukemia): 42.8 µM
- TGI (HOP-62 NSCLC): > 100 µM
- TGI (MALME-3M melanoma): > 100 µM
- TGI (HOP-92 NSCLC): > 100 µM
- TGI (U251 CNS): 78.9 µM
- TGI (MDA-MB-435): 50 µM
- TGI (RXF 393 renal): 22 µM
- TGI (OVCAR-3 ovarian): 58 µM
- TGI (SK-MEL-28 melanoma): > 100 µM
- TGI (A549 NSCLC): > 100 µM
- TGI (UACC-257 melanoma): 65 µM
- TGI (SF-295 CNS): > 100 µM
- TGI (SK-OV-3 ovarian): 57.1 µM
- TGI (786-0 renal): 60.5 µM
- TGI (SN12C renal): > 100 µM
- TGI (HCC-2998 colon): 22.7 µM

Compound: CCN(CC)c1ccc2cc(C(N)=O)c(=Nc3ccc(F)cc3)oc2c1
- TGI (MDA-N): > 100 µM
- TGI (ACHN renal): > 100 µM
- TGI (SR leukemia): > 100 µM
- TGI (HOP-62 NSCLC): > 100 µM
- TGI (MALME-3M melanoma): > 100 µM
- TGI (HOP-92 NSCLC): > 100 µM
- TGI (U251 CNS): > 100 µM
- TGI (MDA-MB-435): > 100 µM
- TGI (RXF 393 renal): 92 µM
- TGI (OVCAR-3 ovarian): > 100 µM
- TGI (SK-MEL-28 melanoma): > 100 µM
- TGI (A549 NSCLC): > 100 µM
- TGI (UACC-257 melanoma): > 100 µM
- TGI (SF-295 CNS): > 100 µM
- TGI (SK-OV-3 ovarian): > 100 µM
- TGI (786-0 renal): > 100 µM
- TGI (SN12C renal): > 100 µM
- TGI (HCC-2998 colon): > 100 µM

Compound: O=C(N[C@H]1CCC[C@H]1C(=O)Nc1ccc(C(F)(F)F)cc1)OCc1ccccc1
- TGI (MDA-N): > 100 µM
- TGI (ACHN renal): > 100 µM
- TGI (SR leukemia): > 100 µM
- TGI (HOP-62 NSCLC): > 100 µM
- TGI (MALME-3M melanoma): > 100 µM
- TGI (HOP-92 NSCLC): > 100 µM
- TGI (U251 CNS): > 100 µM
- TGI (MDA-MB-435): > 100 µM
- TGI (RXF 393 renal): > 100 µM
- TGI (OVCAR-3 ovarian): > 100 µM
- TGI (SK-MEL-28 melanoma): > 100 µM
- TGI (A549 NSCLC): > 100 µM
- TGI (UACC-257 melanoma): > 100 µM
- TGI (SF-295 CNS): > 100 µM
- TGI (SK-OV-3 ovarian): > 100 µM
- TGI (786-0 renal): > 100 µM
- TGI (SN12C renal): > 100 µM
- TGI (HCC-2998 colon): > 100 µM
